# Reference: PMC12090182, “Repurposing of the RIPK1-Selective Benzo[1,4]oxazepin-4-one Scaffold for the Development of a Type III LIMK1/2 Inhibitor” (ACS Chemical Biology, 2025)
# Biological target: 468 kinases including some pathogenic mutants (Mycobacterium tuberculosis, UniProt P9WI81)
# Experiment: biochemical
# Assay type: binding
structure (smiles),measurement,value
"CN1C(=O)[C@@H](N2CCc3c(nn(Cc4ccccc4)c3C(N)=O)C2=O)COc2cc(Cl)ccc21 [Compound 10, (S)-2-benzyl-6-(8-chloro-5-methyl-4-oxo-2,3,4,5-tetrahydrobenzo[b][1,4]oxazepin-3-yl)-7-oxo-4,5,6,7-tetrahydro-2H-pyrazolo[3,4-c]pyridine-3-carboxamide]",Percent Control,100%
